How the values were obtained:
cytochrome P450 2C9 = cytochrome P450 2C9 (Homo sapiens, UniProt P11712); experiment: Inhibitory activity on cytochrome P450 2C9; format: in vitro ADME; details: no significant inhibition
cytochrome P450 1A2 = molecular target: T1, cytochrome P450 1A2 (Homo sapiens, UniProt P05177); experiment: Inhibitory activity on cytochrome P450 1A2; format: in vitro ADME; details: no significant inhibition
T1 sequence (P05177 1-516): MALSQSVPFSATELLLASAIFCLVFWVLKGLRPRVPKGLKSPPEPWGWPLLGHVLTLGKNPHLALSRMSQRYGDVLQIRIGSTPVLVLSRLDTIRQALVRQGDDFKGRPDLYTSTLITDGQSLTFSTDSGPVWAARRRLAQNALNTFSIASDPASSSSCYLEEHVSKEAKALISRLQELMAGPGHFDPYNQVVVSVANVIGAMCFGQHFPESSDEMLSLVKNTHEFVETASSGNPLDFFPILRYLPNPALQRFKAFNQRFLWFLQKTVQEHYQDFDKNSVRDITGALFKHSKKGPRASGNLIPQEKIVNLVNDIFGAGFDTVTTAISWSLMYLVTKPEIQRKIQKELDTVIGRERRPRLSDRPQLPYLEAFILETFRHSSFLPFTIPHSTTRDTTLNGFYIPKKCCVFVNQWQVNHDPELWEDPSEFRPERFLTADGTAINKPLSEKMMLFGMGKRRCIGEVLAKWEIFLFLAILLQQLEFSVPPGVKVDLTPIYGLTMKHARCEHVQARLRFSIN

Chain of cytochrome P450 2C9 (P11712 whole entry): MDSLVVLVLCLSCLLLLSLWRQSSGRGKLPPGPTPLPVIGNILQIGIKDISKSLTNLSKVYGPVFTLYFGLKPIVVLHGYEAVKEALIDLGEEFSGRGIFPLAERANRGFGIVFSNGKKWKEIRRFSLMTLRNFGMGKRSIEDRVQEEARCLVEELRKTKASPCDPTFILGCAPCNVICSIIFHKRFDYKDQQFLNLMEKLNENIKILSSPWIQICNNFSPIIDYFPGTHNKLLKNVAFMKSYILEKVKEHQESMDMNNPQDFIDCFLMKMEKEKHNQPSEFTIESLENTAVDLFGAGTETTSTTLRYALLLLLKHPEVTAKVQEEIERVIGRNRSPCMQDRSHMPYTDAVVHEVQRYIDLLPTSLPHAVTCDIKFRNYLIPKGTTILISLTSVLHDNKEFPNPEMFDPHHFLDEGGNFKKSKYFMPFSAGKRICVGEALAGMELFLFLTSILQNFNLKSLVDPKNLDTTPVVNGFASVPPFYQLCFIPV

Compound	IC50 (cytochrome P450 2C9) [µM]	IC50 (cytochrome P450 1A2) [µM]
COCC1CC(c2cc(OC3CC3)c(Nc3ncc(Cl)c(Nc4cn(C)nc4S(=O)(=O)C(C)C)n3)cc2C)CCN1C (centres unmarked) [Final product 77]	> 10	> 10
Cc1cc(Nc2ncc(Cl)c(Nc3cn(C)nc3S(=O)(=O)CC(C)C)n2)c(OC2CC2)cc1C1CCN(C)CC1 [Final product 57]	> 10	> 10
Cc1cc(Nc2ncc(Cl)c(Nc3cn(C)nc3S(=O)(=O)C(C)C)n2)c(OC2CC2)cc1C1CCC(NS(C)(=O)=O)CC1 (centres unmarked) [Final product 205, N-(4-(4-(5-chloro-4-(3-(isopropylsulfonyl)-1-methyl-1H-pyrazol-4-amine)pyrimidin-2-amine)-5-cyclopropoxy-2-methylphenyl)cyclohexyl)methanesulfonamide]	> 10	> 10
COCCN1CCC(c2cc(OC3CC3)c(Nc3ncc(Cl)c(Nc4cn(C)nc4S(=O)(=O)C(C)C)n3)cc2C)CC1 [Final product 82]	> 10	> 10
